Read-outs that look alike come from different tables or passages of the source. No end group written: not given here.
How the values were obtained:
[1] = biological target: T1, GmPOPB-S577A (inactive mutant) (Galerina marginata, UniProt H2E7Q8, S577A); experiment: Isothermal titration calorimetry, peptide binding to inactive mutant GmPOPB_S577A; conditions: ITC, GmPOPB_S577A; for Binding detected by ITC: peptide concentrations up to 1 mM; for -TΔS / ΔG / ΔH: 20 °C, average ± SEM
T1 construct: His-tag (TEV-cleavable) (cleaved yes); made in house; host or cells: E. coli BL21(DE3)
T1 sequence (H2E7Q8 1-730 S577A): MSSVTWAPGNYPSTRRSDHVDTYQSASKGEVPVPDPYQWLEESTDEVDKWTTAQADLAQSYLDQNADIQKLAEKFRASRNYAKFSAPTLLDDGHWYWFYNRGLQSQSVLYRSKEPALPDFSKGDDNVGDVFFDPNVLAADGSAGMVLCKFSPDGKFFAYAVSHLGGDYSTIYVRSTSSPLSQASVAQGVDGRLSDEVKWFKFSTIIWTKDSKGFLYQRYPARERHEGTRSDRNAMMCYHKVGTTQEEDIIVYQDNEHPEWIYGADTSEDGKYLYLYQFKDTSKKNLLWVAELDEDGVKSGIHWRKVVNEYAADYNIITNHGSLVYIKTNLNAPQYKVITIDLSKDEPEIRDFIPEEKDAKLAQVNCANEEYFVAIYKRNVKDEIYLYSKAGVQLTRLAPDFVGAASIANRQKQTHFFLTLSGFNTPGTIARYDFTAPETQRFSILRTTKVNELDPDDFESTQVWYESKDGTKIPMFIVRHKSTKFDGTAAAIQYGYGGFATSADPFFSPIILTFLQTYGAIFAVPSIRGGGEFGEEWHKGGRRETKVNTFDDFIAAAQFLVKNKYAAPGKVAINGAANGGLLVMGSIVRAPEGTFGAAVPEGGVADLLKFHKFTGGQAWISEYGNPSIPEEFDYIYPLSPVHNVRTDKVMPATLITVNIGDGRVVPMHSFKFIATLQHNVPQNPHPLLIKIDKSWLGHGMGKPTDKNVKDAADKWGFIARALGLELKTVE
Method: All titrations were performed on a MicroCal PEAQ-ITC instrument (MicroCal, Malvern Instruments, Northamption, MA, USA) and the results were fitted with PEAQ-ITC analysis software (MicroCal, Malvern Instruments, Northampton, MA, USA). Peptide ligand solutions were prepared in 20 mM Tris pH 8.0 containing 1 mM DTT, prior to buffer exchange by three cycles of dilution in 50 mM Tris pH 8.0 with 50 mM NaCl, 10 mM DTT followed by concentration using a Microsep Advance centrifugal device equipped with a 1 kDa cut off membrane (Pall Corporation). The same three cycles of dilution in 50 mM Tris pH 8.0 with 50 mM NaCl and 10 mM DTT followed by concentration were performed with the protein to be used in the titration using a Vivaspin protein concentrator spin column with a 30 kDa cut off (GE Healthcare). A final dilution to the concentration to be used for titration was performed using the buffer that passed through during the protein buffer exchange, both for the protein and peptide to be used to avoid any possible buffer mismatch. […] Titrations of peptide into protein solutions were conducted at 20 °C. For all the titration experiments, a total of 19 injections of 2 μL were made at 120 s intervals. The heat released due to the first injection (0.4 μL) was excluded from data analyses. […] Equilibrium dissociation constants (K d) as well as ΔH and ΔS values for binding of each peptide to protein were obtained by fitting the calorimetric data with a single-site model using the stoichiometry parameter n fixed at 1.0 using Malvern PEAQ-ITC data analysis software. […] We performed all ITC binding experiments at least in duplicate, and calculations of average and standard error of the mean were performed with GraphPad Prism.

[2] = biological target: T1, GmPOPB-S577A (inactive mutant); conditions: ITC, GmPOPB_S577A, cited from earlier work
From the text: Peptide Sequence Kd (μM) ΔG ΔH -TΔS N (kcal mol-1) (kcal mol-1) (kcal mol-1) measurements 9mer IW GIGCNPW ND ND ND ND 10mer IW GIGCNPW T 83 ± 17 -5.5 ± 0.1 -3.1 ± 0.5 -2.4 ± 0.3 2 11mer IW GIGCNPW TA 39 ± 18 -5.9 ± 0.3 -1.5 ± 0.7 […] 2 12mer IW GIGCNPW TAE 21 ± 5 -6.3 ± 0.1 -1.0 ± 0.3 -5.3 ± 0.4 2 13mer IW GIGCNPW TAEH 2.4 ± 0.1 -7.3 ± 0.1 -0.6 ± 0.2 -6.9 ± 0.2 2 14mer IW GIGCNPW TAEHV 9.5 ± 1.1 -6.7 ± 0.1 -0.9 ± 0.2 -5.8 ± 0.2 2 9mer- […] 121 ± 19 -5.3 ± 0.1 -6.4 ± 1.6 2.6 ± 1.5 3 recognition sequence 12mer- ...

GmPOPB-S577A = biological target: T2, GmPOPB-S577A (Galerina marginata, UniProt H2E7Q8, S577A); experiment: ITC; conditions: both partners purified
T2 sequence: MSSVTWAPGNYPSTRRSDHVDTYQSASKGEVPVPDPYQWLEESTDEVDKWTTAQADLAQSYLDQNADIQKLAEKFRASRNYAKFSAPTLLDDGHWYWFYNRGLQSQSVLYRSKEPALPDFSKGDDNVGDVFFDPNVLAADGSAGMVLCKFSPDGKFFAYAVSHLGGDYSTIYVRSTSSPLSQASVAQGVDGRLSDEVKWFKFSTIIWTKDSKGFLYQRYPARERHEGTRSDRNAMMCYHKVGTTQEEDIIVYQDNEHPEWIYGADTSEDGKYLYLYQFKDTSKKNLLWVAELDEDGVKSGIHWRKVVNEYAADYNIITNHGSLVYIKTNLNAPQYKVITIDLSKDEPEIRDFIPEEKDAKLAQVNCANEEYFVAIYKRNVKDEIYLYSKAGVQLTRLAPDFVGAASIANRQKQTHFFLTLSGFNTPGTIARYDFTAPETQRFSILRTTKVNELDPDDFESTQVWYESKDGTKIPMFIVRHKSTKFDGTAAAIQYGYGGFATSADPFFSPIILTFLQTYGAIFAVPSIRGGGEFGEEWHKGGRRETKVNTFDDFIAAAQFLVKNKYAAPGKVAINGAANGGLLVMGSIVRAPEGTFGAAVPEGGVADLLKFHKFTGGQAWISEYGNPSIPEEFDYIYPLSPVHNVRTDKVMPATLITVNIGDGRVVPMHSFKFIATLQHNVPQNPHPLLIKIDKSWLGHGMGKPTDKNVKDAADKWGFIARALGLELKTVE

GmPOPB-H698A = biological target: T3, GmPOPB-H698A (Galerina marginata, UniProt H2E7Q8 1-730, H698A); experiment: crystal structure; co-crystallization of 100 mg/ml protein with two-fold molar excess of peptide, sitting drop, 20 °C, 12.5 mM hexammine cobalt chloride as additive; conditions: both partners purified
T3 sequence: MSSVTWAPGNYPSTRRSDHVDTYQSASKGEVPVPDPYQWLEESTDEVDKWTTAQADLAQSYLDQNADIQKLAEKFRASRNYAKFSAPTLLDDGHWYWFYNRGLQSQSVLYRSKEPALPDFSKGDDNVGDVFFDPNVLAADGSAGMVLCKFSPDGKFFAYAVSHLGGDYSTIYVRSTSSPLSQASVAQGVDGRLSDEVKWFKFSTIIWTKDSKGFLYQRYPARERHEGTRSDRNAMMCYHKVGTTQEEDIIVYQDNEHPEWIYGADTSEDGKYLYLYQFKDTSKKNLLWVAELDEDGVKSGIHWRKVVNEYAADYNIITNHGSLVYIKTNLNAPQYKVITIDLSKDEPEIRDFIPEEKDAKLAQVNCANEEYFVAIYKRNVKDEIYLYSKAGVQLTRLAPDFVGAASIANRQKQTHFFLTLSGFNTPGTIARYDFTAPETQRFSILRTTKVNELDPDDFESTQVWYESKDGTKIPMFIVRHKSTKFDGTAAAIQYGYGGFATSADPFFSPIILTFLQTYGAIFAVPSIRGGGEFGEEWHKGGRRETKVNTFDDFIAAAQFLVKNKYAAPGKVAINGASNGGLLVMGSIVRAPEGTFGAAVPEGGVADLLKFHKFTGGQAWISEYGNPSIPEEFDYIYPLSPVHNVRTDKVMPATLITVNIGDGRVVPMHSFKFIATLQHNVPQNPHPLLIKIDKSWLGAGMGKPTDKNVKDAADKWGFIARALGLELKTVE

[3] = average ± SEM, previously published ref 21

In the case of MFDTNATRLP [leader peptide], the “Binding detected by ITC” value [1] is reported as “no detectable binding” and the “Binding detected by ITC” value ([1]; listed as 10-residue leader) is reported as “does not bind”.

With TLASGNDIC [9mer-recognition sequence] the “-TΔS” value [1] was 2.6 ± 1.5 kcal/mol, the ΔG [1] was -5.3 ± 0.1 kcal/mol and the ΔH [1] was -6.4 ± 1.6 kcal/mol.

For “VDQTLASGNDIC [12mer-recognition sequence]”, the “-TΔS” value [1] was 16.3 ± 3.0 kcal/mol, the ΔG [1] was -7.1 ± 0.1 kcal/mol and the ΔH [1] was -23.5 ± 3.1 kcal/mol.

For “WTAEHVDQTLASGNDIC [17mer-recognition sequence]”, the Kd ([2]; 20 °C, 50 mM Tris pH 8.0, 50 mM NaCl, 10 mM DTT, average ± SEM, previously published ref 21) is listed as 430 ± 10 nM, the “-TΔS” value [2, 3] is listed as 1.7 ± 0.4 kcal/mol and the ΔG [2, 3] is listed as -8.5 ± 0.1 kcal/mol. For the same molecule, the ΔH [2, 3] was -10.2 ± 0.4 kcal/mol, the “Difference in ΔG between the 17mer recognition sequence and the 25mer peptide” value [2] was 1.34 kcal/mol and the Kd ([2]; previously published ref 21) was 430 ± 10 nM.

Work on VDQTLASGNDIC [truncated recognition sequence VDQTLASGNDIC (12 residues)] yielded a Kd (GmPOPB-S577A) of 5000 nM.

For TLASGNDIC [truncated recognition sequence TLASGNDIC (9 residues)], the Kd (GmPOPB-S577A) was 121000 nM.

For MFDTNATRLPIWGIGCNPWTAEHVDQTLASGNDIC (also called 35mer peptide) [35mer substrate (amatoxin peptide precursor, full-length substrate)], the binding result (GmPOPB-H698A) was “binds” and the Kd (GmPOPB-S577A) was 120 nM.

From article PMC5648786, “Characterization of a dual function macrocyclase enables design and use of efficient macrocyclization substrates” (Nature Communications, 2017)
